# Results from the supplement of paper PMC10307832.
# Tests used:
# Test in all cases: relative viability (nuclei count vs DMSO), 5 days (fraction); higher = more cells survive
# [1] = test system: 201T
# In short: (§1)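 A single step with final 0.05% Triton X-100, 1% formaldehyde and 1 ug/ml Hoechst fixed the cells and stained nuclei 5 days after treatment. Lung cancer cell lines in 1536-well plates had been treated by pin tool the day after seeding with one drug alone or a fixed anchor-drug dose plus five library-drug doses (not always all listed) in √10 steps, and nuclei were counted on 4× images. Relative viability is the ratio of nuclei in treated wells to nuclei in vehicle wells, taken as the median of duplicate plates.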
# [2] = test system: BEN
# In short: as §1
# [3] = test system: EMC-BAC-2
# In short: as §1
# [4] = test system: HARA
# In short: as §1
# [5] = test system: LCLC-103H
# In short: as §1
# [6] = test system: LOU-NH91
# In short: as §1
# [7] = test system: NCI-H1395
# In short: as §1
# [8] = test system: NCI-H1666
# In short: as §1
# [9] = test system: NCI-H1993
# In short: as §1
# [10] = test system: NCI-H2009
# In short: as §1
# [11] = test system: NCI-H2023
# In short: as §1
# [12] = test system: NCI-H2087
# In short: as §1
# [13] = test system: NCI-H2126
# In short: as §1
# [14] = test system: NCI-H2347
# In short: as §1
# [15] = test system: NCI-H23
# In short: as §1
# [16] = test system: NCI-H3122
# In short: as §1
# [17] = test system: NCI-H441
# In short: as §1
# [18] = test system: NCI-H596
# In short: as §1
# [19] = test system: NCI-H647
# In short: as §1
# [20] = test system: NCI-H650
# In short: as §1
# [21] = test system: NCI-H727
# In short: as §1
# [22] = test system: NCI-H838
# In short: as §1
structure (smiles),measurement,setting,value
COc1cc(N2CCC(C(N)=O)CC2)ccc1Nc1nc(N)c(Cl)c(Nc2ccccc2S(=O)(=O)C(C)C)n1 [HG-5-88-01] + COc1cc2c(Oc3ccc(NC(=O)C4(C(=O)Nc5ccc(F)cc5)CC4)cc3F)ccnc2cc1OCCCN1CCOCC1 [Foretinib] (partner 0.25 µM),relative viability,[1]; first compound 0.04 µM,1.18
same,relative viability,[1]; first compound 0.1265 µM,1.09
same,relative viability,[1]; first compound 0.4 µM,1.12
same,relative viability,[1]; first compound 1.265 µM,0.444
same,relative viability,[1]; first compound 4 µM,1.02
same,relative viability,[2]; first compound 0.04 µM,0.399
same,relative viability,[2]; first compound 0.1265 µM,0.702
same,relative viability,[2]; first compound 0.4 µM,0.444
same,relative viability,[2]; first compound 1.265 µM,0.62
same,relative viability,[2]; first compound 4 µM,0.448
same,relative viability,[3]; first compound 0.04 µM,1.06
same,relative viability,[3]; first compound 0.1265 µM,1.09
same,relative viability,[3]; first compound 0.4 µM,0.973
same,relative viability,[3]; first compound 1.265 µM,0.787
same,relative viability,[3]; first compound 4 µM,0.795
same,relative viability,[4]; first compound 0.04 µM,0.917
same,relative viability,[4]; first compound 0.1265 µM,0.878
same,relative viability,[4]; first compound 0.4 µM,0.875
same,relative viability,[4]; first compound 1.265 µM,0.733
same,relative viability,[4]; first compound 4 µM,0.694
same,relative viability,[5]; first compound 0.04 µM,0.767
same,relative viability,[5]; first compound 0.1265 µM,0.745
same,relative viability,[5]; first compound 0.4 µM,0.745
same,relative viability,[5]; first compound 1.265 µM,0.757
same,relative viability,[5]; first compound 4 µM,0.75
same,relative viability,[6]; first compound 0.04 µM,0.905
same,relative viability,[6]; first compound 0.1265 µM,0.902
same,relative viability,[6]; first compound 0.4 µM,0.872
same,relative viability,[6]; first compound 1.265 µM,0.455
same,relative viability,[6]; first compound 4 µM,0.672
same,relative viability,[7]; first compound 0.04 µM,0.988
same,relative viability,[7]; first compound 0.1265 µM,1.06
same,relative viability,[7]; first compound 0.4 µM,1.04
same,relative viability,[7]; first compound 1.265 µM,0.859
same,relative viability,[7]; first compound 4 µM,0.999
same,relative viability,[8]; first compound 0.04 µM,1.06
same,relative viability,[8]; first compound 0.1265 µM,1.06
same,relative viability,[8]; first compound 0.4 µM,1
same,relative viability,[8]; first compound 1.265 µM,0.74
same,relative viability,[8]; first compound 4 µM,0.677
same,relative viability,[9]; first compound 0.04 µM,0.739
same,relative viability,[9]; first compound 0.1265 µM,0.727
same,relative viability,[9]; first compound 0.4 µM,0.725
same,relative viability,[9]; first compound 1.265 µM,0.586
same,relative viability,[9]; first compound 4 µM,0.623
same,relative viability,[10]; first compound 0.04 µM,1.18
same,relative viability,[10]; first compound 0.1265 µM,1.25
same,relative viability,[10]; first compound 0.4 µM,1.14
same,relative viability,[10]; first compound 1.265 µM,1.14
same,relative viability,[10]; first compound 4 µM,1.24
same,relative viability,[11]; first compound 0.04 µM,1
same,relative viability,[11]; first compound 0.1265 µM,0.899
same,relative viability,[11]; first compound 0.4 µM,0.628
same,relative viability,[11]; first compound 1.265 µM,0.399
same,relative viability,[11]; first compound 4 µM,0.507
same,relative viability,[12]; first compound 0.04 µM,1.13
same,relative viability,[12]; first compound 0.1265 µM,1.24
same,relative viability,[12]; first compound 0.4 µM,1.06
same,relative viability,[12]; first compound 1.265 µM,1.14
same,relative viability,[12]; first compound 4 µM,0.864
same,relative viability,[13]; first compound 0.1265 µM,1.22
same,relative viability,[13]; first compound 0.4 µM,1.05
same,relative viability,[13]; first compound 1.265 µM,0.937
same,relative viability,[13]; first compound 4 µM,1.23
same,relative viability,[14]; first compound 0.04 µM,0.845
same,relative viability,[14]; first compound 0.1265 µM,0.974
same,relative viability,[14]; first compound 0.4 µM,1.03
same,relative viability,[14]; first compound 1.265 µM,0.65
same,relative viability,[14]; first compound 4 µM,0.452
same,relative viability,[15]; first compound 0.04 µM,1.08
same,relative viability,[15]; first compound 0.1265 µM,1.06
same,relative viability,[15]; first compound 0.4 µM,0.972
same,relative viability,[15]; first compound 1.265 µM,0.729
same,relative viability,[15]; first compound 4 µM,0.515
same,relative viability,[16]; first compound 0.04 µM,0.891
same,relative viability,[16]; first compound 0.1265 µM,0.684
same,relative viability,[16]; first compound 0.4 µM,0.205
same,relative viability,[16]; first compound 1.265 µM,0.169
same,relative viability,[16]; first compound 4 µM,0.15
same,relative viability,[17]; first compound 0.04 µM,0.889
same,relative viability,[17]; first compound 0.1265 µM,1.06
same,relative viability,[17]; first compound 0.4 µM,1
same,relative viability,[17]; first compound 1.265 µM,0.771
same,relative viability,[17]; first compound 4 µM,0.839
same,relative viability,[18]; first compound 0.04 µM,0.956
same,relative viability,[18]; first compound 0.1265 µM,0.871
same,relative viability,[18]; first compound 0.4 µM,0.801
same,relative viability,[18]; first compound 1.265 µM,0.895
same,relative viability,[18]; first compound 4 µM,0.487
same,relative viability,[19]; first compound 0.04 µM,1.33
same,relative viability,[19]; first compound 0.1265 µM,1.07
same,relative viability,[19]; first compound 0.4 µM,1.28
same,relative viability,[19]; first compound 1.265 µM,1.05
same,relative viability,[19]; first compound 4 µM,1.31
same,relative viability,[20]; first compound 0.04 µM,1.1
same,relative viability,[20]; first compound 0.1265 µM,1.18
same,relative viability,[20]; first compound 0.4 µM,0.949
same,relative viability,[20]; first compound 1.265 µM,0.602
same,relative viability,[20]; first compound 4 µM,0.719
same,relative viability,[21]; first compound 0.04 µM,1.07
same,relative viability,[21]; first compound 0.1265 µM,0.843
same,relative viability,[21]; first compound 0.4 µM,0.811
same,relative viability,[21]; first compound 1.265 µM,0.55
same,relative viability,[21]; first compound 4 µM,0.581
same,relative viability,[22]; first compound 0.04 µM,0.939
same,relative viability,[22]; first compound 0.1265 µM,1.02
same,relative viability,[22]; first compound 0.4 µM,0.797
same,relative viability,[22]; first compound 1.265 µM,0.814
same,relative viability,[22]; first compound 4 µM,0.893
